In PubChem BioAssay (NCI):
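Growth conditions: 96-well plates. Treatment: test compound, 48 hours, 5 concentrations. Analysis: linear interpolation between bracketing concentrations; unreached endpoints set to highest concentration. GI50 = concentration required for 50% inhibition of growth. TGI: concentration producing complete growth inhibition.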

Assays:
Test in all cases: DTP human tumour cell line panel, 48 h
NCI-H23 lung = system: NCI-H23 lung
NCI-H460 lung = system: NCI-H460 lung
NCI-H226 lung = system: NCI-H226 lung
SR leukemia = system: SR leukemia
M14 melanoma = system: M14 melanoma
CCRF-CEM leukemia = system: CCRF-CEM leukemia
OVCAR-8 ovarian = system: OVCAR-8 ovarian
A549 NSCLC = system: A549 NSCLC
ACHN renal = system: ACHN renal
OVCAR-3 ovarian = system: OVCAR-3 ovarian

Row | Compound | GI50 (NCI-H23 lung) [µM] | TGI (NCI-H23 lung) [µM] | GI50 (NCI-H460 lung) [µM] | TGI (NCI-H460 lung) [µM] | GI50 (NCI-H226 lung) [µM] | TGI (NCI-H226 lung) [µM] | GI50 (SR leukemia) [µM] | TGI (SR leukemia) [µM] | GI50 (M14 melanoma) [µM] | TGI (M14 melanoma) [µM] | GI50 (CCRF-CEM leukemia) [µM] | TGI (CCRF-CEM leukemia) [µM] | GI50 (OVCAR-8 ovarian) [µM] | TGI (OVCAR-8 ovarian) [µM] | GI50 (A549 NSCLC) [µM] | TGI (A549 NSCLC) [µM] | TGI (ACHN renal) [µM] | GI50 (OVCAR-3 ovarian) [µM] | TGI (OVCAR-3 ovarian) [µM]
1 | COc1ccc([I+]c2ccc(OC)cc2)cc1 | 4.85 | > 100 | 5.28 | > 100 | 14.4 | > 100 | 3.81 | > 100 | 13.4 | > 100 | 4.98 | > 100 | 3.27 | > 100 | 5.14 | > 100 | > 100 | 11.8 | > 100
2 | C=C(C)CCC1C=[N+]([O-])OC(C)(C)C1(C)C (centres undefined) | – | – | – | > 100 | – | > 100 | – | > 100 | – | > 100 | – | > 100 | – | > 100 | – | > 100 | > 100 | – | > 100
3 | CCC(Nc1ncnc2nc[nH]c12)C(=O)O (centres undefined) | – | > 100 | – | > 100 | – | > 100 | – | > 100 | – | > 100 | – | > 100 | – | > 100 | – | > 100 | > 100 | – | > 100
4 | Cc1ccc(NC(=O)C2C3CCC(O3)C2C(=O)O)cc1 (centres undefined) | – | > 100 | – | > 100 | – | > 100 | – | 43.6 | – | > 76.4 | – | > 75.5 | – | > 100 | – | > 100 | > 100 | – | > 89.7
5 | COc1ccc2[nH]c3c(c2c1)CC(=O)N1CCC[C@H](C1)CC31OCCCO1 | – | > 100 | – | > 100 | – | > 100 | – | > 100 | – | > 100 | – | > 100 | – | > 100 | – | > 100 | > 100 | – | > 100
6 | CSc1ncc2c(n1)-c1ccccc1OC2 | – | > 100 | – | > 100 | – | > 100 | – | > 100 | – | > 100 | – | > 100 | – | > 100 | – | > 100 | > 100 | – | > 100
7 | CCOC(=O)c1nc2cc(Cl)ccc2[nH]c1=O | – | > 100 | – | > 100 | – | > 100 | – | > 100 | – | > 100 | – | > 100 | – | > 100 | – | > 100 | > 100 | – | > 100
8 | COC(=O)c1c(O)ccc2c1c1c(n2Cc2cccc(C)c2)C(=O)c2ccccc2C1 | – | > 75 | – | > 75 | – | > 75 | – | 29.4 | – | 47.1 | – | 36.8 | – | > 75 | – | > 75 | > 75 | – | > 75
9 | O=c1[nH]c2ccc(CC(=S)N3CCOCC3)cc2o1 | – | > 100 | – | > 100 | – | > 100 | – | > 100 | – | > 100 | – | > 100 | – | > 100 | – | – | > 100 | – | > 100
10 | Cc1[nH]c2nccn2c(=O)c1CCO | – | > 10 | – | > 10 | – | > 10 | – | > 10 | – | > 10 | – | > 10 | – | > 10 | – | > 10 | > 10 | – | > 10
11 | CSc1ccc2c(c1)c(CCN)c(C)n2Cc1ccccc1Cl | – | 3.86 | – | 3.02 | – | 4.1 | – | > 100 | – | 3.32 | – | 3.89 | – | – | – | 3.18 | 3.06 | – | 3.3
12 | CCOC(=O)NN(C(=O)OCC)C(C(=O)c1ccccc1)N(NC(=O)OCC)C(=O)OCC | – | > 100 | – | > 100 | – | > 100 | – | > 100 | – | > 100 | – | > 100 | – | > 100 | – | > 100 | > 100 | – | > 100
13 | CN(C)S(=O)(=O)c1nc(Cl)c2[nH]cnc2n1 | – | > 100 | – | – | – | > 100 | – | > 100 | – | > 100 | – | > 100 | – | > 100 | – | > 100 | > 100 | – | > 100
14 | CCOC(=O)c1cc(C)nc2c1c(=O)n(-c1ccccc1)c(=O)n2CCCCN1CCN(c2ncccn2)CC1 | – | > 100 | – | – | – | > 100 | – | > 100 | – | > 100 | – | 97.7 | – | > 100 | – | > 100 | > 100 | – | > 100
15 | Cc1ccnc(Nc2[nH]c(C(=O)c3ccc(Cl)cc3)c(N)c2C(=S)Nc2ccccc2)c1 | – | 46.5 | – | 27.3 | – | 45.6 | – | 39 | – | 31.9 | – | > 100 | – | 34.5 | – | 53 | 55.8 | – | 93
16 | O=C1Nc2ccc(Cl)c(I)c2C1=O | – | 37.6 | – | 39.7 | – | 20 | – | 50.7 | – | 31.1 | – | 57.4 | – | 38.1 | – | > 100 | 30.7 | – | 52.3
17 | CC#COS(=O)(=O)c1ccc(C)cc1 | – | > 100 | – | > 100 | – | > 100 | – | > 100 | – | > 100 | – | > 100 | – | > 100 | – | > 100 | > 100 | – | > 100
